Read-outs that look alike come from different tables or passages of the source.
Columns and labels:
[1] = tested on: Hedgehog pathway activation (GLi-luciferase reporter) in Shh Light II reporter cells; assay: Hedgehog pathway activation on Shh Light II reporter cells measured by luciferase activity; type: cell-based; details: Mus musculus, Shh Light II
Summary of the method: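 Shh Light II reporter cells carrying a hedgehog-responsive GLi-luciferase reporter were stimulated either with 500 nM SAG, a direct Smoothened agonist, or with conditioned media containing human Sonic Hedgehog (hShh). Test compounds were evaluated for blocking this pathway activation, quantified by luciferase activity. Cell viability was monitored in parallel with the Celltiter-Blue® assay.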

[2] = tested on: Hedgehog pathway activation on 10T1/2/Smo#3 cells (C3H10T1/2 cells transfected with human Smoothened receptor); assay: Hedgehog pathway activation on 10T1/2/Smo#3 cells measured by ALP activity; type: cell-based; details: Mus musculus, C3H 10T1/2, 10T1/2/Smo#3 cells
Summary of the method: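 Inhibition of alkaline phosphatase induction, read fluorometrically from 4-methylumbelliferyl phosphate conversion, gave IC50 values; CellTiter-Blue tracked viability in parallel. Cells were the human Smo-transfected 10T1/2/Smo#3 pool, stimulated by 10-20% hShh conditioned medium or the Smo agonist SAG (500 nM).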

[3] = hShh activation, read-out: Shh (IC50, inhibition of Hedgehog pathway activation)
[4] = measured by ALP activity, read-out: ALP (IC50, inhibition of Hedgehog pathway activation)

| IC50 [1, 3] | IC50 [2, 4] | IC50 ([1]; SAG activation (500 nM SAG), read-out: Shh Light II luciferase activity (SAG activation)) | IC50 ([1]; hShh activation, read-out: Shh Light II luciferase activity (hShh activation)) | IC50 ([2]; hShh activation, ALP activity, read-out: 10T1/2/Smo#3 ALP activity (hShh Activation)) | SMILES |
| --- | --- | --- | --- | --- | --- |
| 186 nM | 94 nM | – | – | – | Cc1ccc(-c2cn3nc(-c4cccnc4C(F)(F)F)ccc3n2)cc1NC(=O)C1CCCN1C (centres unmarked) [Example 647, 1-methyl-N-(2-methyl-5-(6-(2-(trifluoromethyl)pyridin-3-yl)imidazo[1,2-b]pyridazin-2-yl)phenyl)pyrrolidine-2-carboxamide] |
| 256 nM | 254 nM | – | – | – | CC1CCCCN1c1ccc2nc(-c3ccc(C(F)(F)F)c(NC(=O)C(C)(C)C)c3)cn2n1 (centres unmarked) [Example 294, N-(5-(6-(2-methylpiperidin-1-yl)imidazo[1,2-b]pyridazin-2-yl)-2-(trifluoromethyl)phenyl)pivalamide] |
| 2800 nM | 6740 nM | 3000 to 30000 nM | 3000 to 30000 nM | 3000 to 30000 nM | COc1ccc2nc(-c3cc(NC(=O)CC(C)(C)C)ccc3Cl)cn2n1 [Example 117, N-(4-chloro-3-(6-methoxyimidazo[1,2-b]pyridazin-2-yl)phenyl)-3,3-dimethylbutanamide] |
| 339 nM | 973 nM | – | – | – | CC(C)(C)C(=O)Nc1cc(-c2cn3nc(OCCN4CCCCC4)ccc3n2)ccc1C(F)(F)F [Example 309, N-(5-(6-(2-(piperidin-1-yl)ethoxy)imidazo[1,2-b]pyridazin-2-yl)-2-(trifluoromethyl)phenyl)pivalamide] |
| > 10000 nM | 6980 nM | – | – | – | Fc1ccc(CN2CCN(c3ccc4nc(-c5ccc(F)cc5)c(Br)n4n3)CC2)cc1 [Example 146, 3-bromo-6-(4-(4-fluorobenzyl)piperazin-1-yl)-2-(4-fluorophenyl)imidazo[1,2-b]pyridazine] |
| 357 nM | 236 nM | – | – | – | CC(C)(C)C(=O)Nc1cc(-c2cn3nc(-c4ccncc4F)ccc3n2)ccc1C(F)(F)F [Example 177, N-(5-(6-(3-fluoropyridin-4-yl)imidazo[1,2-b]pyridazin-2-yl)-2-(trifluoromethyl)phenyl)pivalamide] |
| 44 nM | 23 nM | – | – | – | Cc1ccc(-c2cn3nc(N4CCC(O)C4)ccc3n2)cc1NC(=O)C(C)(C)C (centres unmarked) [Example 468, N-(5-(6-(3-hydroxypyrrolidin-1-yl)imidazo[1,2-b]pyridazin-2-yl)-2-methylphenyl)pivalamide] |
| 400 nM | 373 nM | – | – | – | CCN1CCCC1C(=O)Nc1cc(-c2cn3nc(-c4cccnc4C(F)(F)F)ccc3n2)ccc1C (centres unmarked) [Example 648, 1-ethyl-N-(2-methyl-5-(6-(2-(trifluoromethyl)pyridin-3-yl)imidazo[1,2-b]pyridazin-2-yl)phenyl)pyrrolidine-2-carboxamide] |
| 311 nM | 281 nM | – | – | – | Cc1ccc(-c2cn3nc(-c4ccc5nonc5c4)ccc3n2)cc1NC(=O)C(C)(C)C [Example 449, N-(5-(6-(benzo[c][1,2,5]oxadiazol-5-yl)imidazo[1,2-b]pyridazin-2-yl)-2-methylphenyl)pivalamide] |
| 2770 nM | 7270 nM | – | – | – | Cc1cc(C)c(-c2cn3ncccc3n2)cc1NC(=O)C(C)(C)C [Example 107, N-(5-(imidazo[1,2-b]pyridazin-2-yl)-2,4-dimethylphenyl)pivalamide] |
| > 10000 nM | 6280 nM | – | – | – | COc1ccc2nc(-c3ccc(Cl)c(NC(=O)CC(C)C(F)(F)F)c3)cn2n1 (centres unmarked) [Example 120, N-(2-chloro-5-(6-methoxyimidazo[1,2-b]pyridazin-2-yl)phenyl)-4,4,4-trifluoro-3-methylbutanamide] |
| 86 nM | 105 nM | – | – | – | Cc1ccc(-c2cn3nc(-c4cc(C(F)(F)F)ccc4F)ccc3n2)cc1NC(=O)C(C)(C)C [Example 221, N-(5-(6-(2-fluoro-5-(trifluoromethyl)phenyl)imidazo[1,2-b]pyridazin-2-yl)-2-methylphenyl)pivalamide] |
| 139 nM | 127 nM | – | – | – | Cc1ccc(-c2cn3nc(-c4cccnc4C(F)(F)F)ccc3n2)cc1NC(=O)NC1CC1 [Example 651, 1-cyclopropyl-3-(2-methyl-5-(6-(2-(trifluoromethyl)pyridin-3-yl)imidazo[1,2-b]pyridazin-2-yl)phenyl)urea] |

— patent US8871767B2, “2-arylimidazo[1,2-B]pyridazine, 2-phenylimidazo[1,2-A]pyridine, and 2-phenylimidazo[1,2-A]pyrazine derivatives” (Hengrui (USA) Ltd., priority 2010, dated 2014)
